target: T1, PDE4B (human recombinant) (Homo sapiens, UniProt Q07343); assay: PDE4B inhibition, radioactive SPA and/or IMAP fluorescence polarisation (FP) assay; type: biochemical; settings: comparators: Examples 6, 7, 29, 26, 64, 126, 124, 170, 177
T1 construct: made in house
Source text: Human recombinant PDE4B, in particular the 2B splice variant thereof (HSPDE4B2B), is disclosed in WO 94/20079 and also M. M. McLaughlin et al., “A low Km, rolipram-sensitive, cAMP-specific phosphodiesterase from human brain: cloning and expression of cDNA, biochemical characterisation of recombinant protein, and tissue distribution of mRNA”, J. Biol. Chem., 1993, 268, 6470-6476. For example, in Example 1 of WO 94/20079, human recombinant PDE4B is described as being expressed in the PDE-deficient yeast Saccharomyces cerevisiae strain GL62, e.g. after induction by addition of 150 uM CuSO4, and 100,000×g supernatant fractions of yeast cell lysates are described for use in the harvesting of PDE4B enzyme.
The ability of compounds to inhibit catalytic activity at PDE4B or 4D (human recombinant), PDE3 (from bovine aorta), PDE5 (human recombinant) or PDE6 (from bovine retina) can optionally be determined by Scintillation Proximity Assay (SPA) in 96-well format.
Test compounds (as a solution in DMSO, preferably about 2 microlitre (ul) volume of DMSO solution) are preincubated at ambient temperature (room temperature, e.g. 19-23° C.) in Wallac Isoplates (code 1450-514) with PDE enzyme in 50 mM Tris-HCl buffer pH 7.5, 8.3 mM MgCl2, 1.7 mM EGTA, 0.05% (w/v) bovine serum albumin for 10-30 minutes (usually 30 minutes). The enzyme concentration is adjusted so that no more than 20% hydrolysis of the substrate defined below occurs in control wells without compound, during the incubation. For the PDE3, PDE4B and PDE4D assays, [5′,8-3H]Adenosine 3′,5′-cyclic phosphate (Amersham Pharmacia Biotech, code TRK.559; or Amersham Biosciences UK Ltd, Pollards Wood, Chalfont St Giles, Buckinghamshire HP8 4SP, UK) is added to give 0.05 uCi per well and about 10 nM final concentration. For the PDE5 and PDE6 assays, [8-^3H]Guanosine 3′,5′-cyclic phosphate (Amersham Pharmacia Biotech, code TRK.392) is added to give 0.05 uCi per well and about 36 nM final concentration. Plates containing assay mixture, preferably approx. 100 ul volume of assay mixture, are mixed on an orbital shaker for 5 minutes and incubated at ambient temperature for 1 hour. Phosphodiesterase SPA beads (Amersham Pharmacia Biotech, code RPNQ 0150) are added (about 1 mg per well) to terminate the assay. Plates are sealed and shaken and allowed to stand at ambient temperature for 35 minutes to 1 hour (preferably 35 minutes) to allow the beads to settle. Bound radioactive product is measured using a WALLAC TRILUX 1450 Microbeta scintillation counter. For inhibition curves, 10 concentrations (1.5 nM-30 uM) of each compound are assayed. Curves are analysed using ActivityBase and XLfit (ID Business Solutions Limited, 2 Ocean Court, Surrey Research Park, Guildford, Surrey GU2 7QB, United Kingdom) Results are expressed as pIC50 values.
The ability of compounds to inhibit catalytic activity at PDE4B (human recombinant) or PDE4D (human recombinant) can optionally be determined by IMAP Fluorescence Polarisation (FP) assay (IMAP Explorer kit, available from Molecular Devices Corporation, Sunnydale, Calif., USA; Molecular Devices code: R8062) in 384-well format.
The IMAP FP assay is able to measure PDE activity in an homogenous, non-radioactive assay format. The FP assay uses the ability of immobilised trivalent metal cations, coated onto nanoparticles (tiny beads), to bind the phosphate group of Fl-AMP that is produced on the hydrolysis of fluorescein-labelled (Fl) cyclic adenosine mono-phosphate (Fl-cAMP) to the non-cyclic Fl-AMP form. […] Binding of Fl-AMP product to the beads (coated with the immobilised trivalent cations) slows the rotation of the bound Fl-AMP and leads to an increase in the fluorescence polarisation ratio of parallel to perpendicular light. Inhibition of the PDE reduces/inhibits this signal increase. […]

T1 sequence (Q07343 1-564 isoform Q07343-2): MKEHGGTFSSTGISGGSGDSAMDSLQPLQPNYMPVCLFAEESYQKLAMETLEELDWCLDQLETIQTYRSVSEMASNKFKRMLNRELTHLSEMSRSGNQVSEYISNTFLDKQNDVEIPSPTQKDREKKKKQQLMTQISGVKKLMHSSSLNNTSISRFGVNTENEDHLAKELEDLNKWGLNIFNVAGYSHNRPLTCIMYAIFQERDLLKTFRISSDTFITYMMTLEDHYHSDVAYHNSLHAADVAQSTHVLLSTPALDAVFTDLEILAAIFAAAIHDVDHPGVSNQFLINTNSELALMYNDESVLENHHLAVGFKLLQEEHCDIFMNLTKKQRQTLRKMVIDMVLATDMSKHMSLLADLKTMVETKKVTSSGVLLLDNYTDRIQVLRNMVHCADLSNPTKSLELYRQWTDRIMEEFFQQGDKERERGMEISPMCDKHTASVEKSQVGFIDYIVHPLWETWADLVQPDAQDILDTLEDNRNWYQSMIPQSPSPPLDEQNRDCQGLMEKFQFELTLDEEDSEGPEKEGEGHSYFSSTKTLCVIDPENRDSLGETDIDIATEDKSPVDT

SMILES	PDE4B inhibitory activity compared with the comparable Example of opposite stereochemistry at the CR4R5 (benzylic) carbon atom
CCn1ncc2c(NC3CCOCC3)c(C(=O)N[C@H](COC)c3ccccc3)cnc21 [Example 24, 1-ethyl-N-[(1S)-2-(methyloxy)-1-phenylethyl]-4-(tetrahydro-2H-pyran-4-ylamino)-1H-pyrazolo[3,4-b]pyridine-5-carboxamide]	greater PDE4B inhibitory activity
CCn1ncc2c(NC3CCCCC3)c(C(=O)N[C@H](CO)c3ccccc3)cnc21 [Example 127, 4-(cyclohexylamino)-1-ethyl-N-[(1S)-2-hydroxy-1-phenylethyl]-1H-pyrazolo[3,4-b]pyridine-5-carboxamide]	greater PDE4B inhibitory activity
CCn1ncc2c(NC3CCOCC3)c(C(=O)N[C@H](CO)c3ccccc3)cnc21 [Example 28, 1-ethyl-N-[(1S)-2-hydroxy-1-phenylethyl]-4-(tetrahydro-2H-pyran-4-ylamino)-1H-pyrazolo[3,4-b]pyridine-5-carboxamide]	greater PDE4B inhibitory activity
CCn1ncc2c(NC3CCOCC3)c(C(=O)N[C@H](C)c3ccccc3)cnc21 [Example 8, 1-ethyl-N-[(1R)-1-phenylethyl]-4-(tetrahydro-2H-pyran-4-ylamino)-1H-pyrazolo[3,4-b]pyridine-5-carboxamide]	greater PDE4B inhibitory activity
CCn1ncc2c(NC3CCOCC3)c(C(=O)N[C@H](C)c3ccc(OC)cc3)cnc21 [Example 63, 1-ethyl-N-{(1R)-1-[4-(methyloxy)phenyl]ethyl}-4-(tetrahydro-2H-pyran-4-ylamino)-1H-pyrazolo[3,4-b]pyridine-5-carboxamide]	greater PDE4B inhibitory activity

same assay, conditions: one reading or average of several (ca. 2-6) readings; SPA and/or FP assay; range given for a group of Examples; read-out: PDE4B pIC50 (±about 0.5) (converted)

SMILES	IC50
CC[C@H](NC(=O)c1cnc2c(cnn2CC)c1NC1CCOCC1)c1ccccc1 [Example 6, 1-ethyl-N-[(1S)-1-phenylpropyl]-4-(tetrahydro-2H-pyran-4-ylamino)-1H-pyrazolo[3,4-b]pyridine-5-carboxamide]	31.6 to 70.8 nM
CCC(NC(=O)c1cnc2c(cnn2CC)c1NC1CCC(=O)CC1)c1ccc(C)cc1 (centres unmarked) [Example 221, 1-ethyl-N-[1-(4-methylphenyl)propyl]-4-[(4-oxocyclohexyl)amino]-1H-pyrazolo[3,4-b]pyridine-5-carboxamide]	0.1 to 2 nM
CCC(NC(=O)c1cnc2c(cnn2CC)c1NC1CCC(=NO)CC1)c1ccc(C)cc1 (centres unmarked) [Example 252, 1-ethyl-4-{[4-(hydroxyimino)cyclohexyl]amino}-N-[1-(4-methylphenyl)propyl]-1H-pyrazolo[3,4-b]pyridine-5-carboxamide]	0.1 to 2 nM
CCn1ncc2c(NC3CCOCC3)c(C(=O)N[C@H](COC)c3ccccc3)cnc21 [Example 24, 1-ethyl-N-[(1S)-2-(methyloxy)-1-phenylethyl]-4-(tetrahydro-2H-pyran-4-ylamino)-1H-pyrazolo[3,4-b]pyridine-5-carboxamide]	0.794 to 5.01 nM
CCC(NC(=O)c1cnc2c(cnn2CC)c1NC1CCC(C(N)=O)CC1)c1ccc(F)cc1 (mixture of isomers) [Example 350, 4-{[4-(aminocarbonyl)cyclohexyl]amino}-1-ethyl-N-[1-(4-fluorophenyl)propyl]-1H-pyrazolo[3,4-b]pyridine-5-carboxamide]	0.501 to 3.16 nM
CCn1ncc2c(NC3CCOCC3)c(C(=O)N[C@H](CO)c3ccccc3)cnc21 [Example 28, 1-ethyl-N-[(1S)-2-hydroxy-1-phenylethyl]-4-(tetrahydro-2H-pyran-4-ylamino)-1H-pyrazolo[3,4-b]pyridine-5-carboxamide]	0.794 to 5.01 nM
CCn1ncc2c(N[C@H]3CC[C@H](C(N)=O)CC3)c(C(=O)N[C@H](C)c3ccccc3)cnc21 [Example 358, 4-{[trans-4-(aminocarbonyl)cyclohexyl]amino}-1-ethyl-N-[(1R)-1-phenylethyl]-1H-pyrazolo[3,4-b]pyridine-5-carboxamide]	39.8 to 158 nM
CCn1ncc2c(NC3CCOCC3)c(C(=O)N[C@@H](CO)c3ccccc3)cnc21 [Example 26, 1-ethyl-N-[(1R)-2-hydroxy-1-phenylethyl]-4-(tetrahydro-2H-pyran-4-ylamino)-1H-pyrazolo[3,4-b]pyridine-5-carboxamide]	31.6 to 70.8 nM
CCn1ncc2c(NC3CCOCC3)c(C(=O)N[C@@H](C)c3ccc(OC)cc3)cnc21 [Example 64, 1-ethyl-N-{(1S)-1-[4-(methyloxy)phenyl]ethyl}-4-(tetrahydro-2H-pyran-4-ylamino)-1H-pyrazolo[3,4-b]pyridine-5-carboxamide]	31.6 to 70.8 nM
CC[C@@H](NC(=O)c1cnc2c(cnn2CC)c1N[C@H]1CC[C@@H](C(N)=O)CC1)c1ccc(C)cc1C [Example 352, 4-{[cis-4-(aminocarbonyl)cyclohexyl]amino}-N-[(1R)-1-(2,4-dimethylphenyl)propyl]-1-ethyl-1H-pyrazolo[3,4-b]pyridine-5-carboxamide]	0.501 to 3.16 nM
CCn1ncc2c(NC3CCOCC3)c(C(=O)NC(CCO)c3ccccc3)cnc21 (centres unmarked) [Example 13, 1-ethyl-N-(3-hydroxy-1-phenylpropyl)-4-(tetrahydro-2H-pyran-4-ylamino)-1H-pyrazolo[3,4-b]pyridine-5-carboxamide]	0.794 to 5.01 nM
CCn1ncc2c(NC3CCC(C(N)=O)CC3)c(C(=O)N[C@H](C)c3ccc(Br)cc3)cnc21 (mixture of isomers) [Example 351, 4-{[4-(aminocarbonyl)cyclohexyl]amino}-N-[(1R)-1-(4-bromophenyl)ethyl]-1-ethyl-1H-pyrazolo[3,4-b]pyridine-5-carboxamide]	0.501 to 3.16 nM
CCC(NC(=O)c1cnc2c(cnn2CC)c1NC1CCOCC1)c1ccc(C)cc1C (single isomer, unassigned; enantiomer 2) [Example 304, N-[1-(2,4-dimethylphenyl)propyl]-1-ethyl-4-(tetrahydro-2H-pyran-4-ylamino)-1H-pyrazolo[3,4-b]pyridine-5-carboxamide (Enantiomer 2)]	0.1 to 2 nM
CCn1ncc2c(NC3CCOCC3)c(C(=O)N[C@H](C)c3cccc4ccccc34)cnc21 [Example 37, 1-ethyl-N-[(1R)-1-(1-naphthalenyl)ethyl]-4-(tetrahydro-2H-pyran-4-ylamino)-1H-pyrazolo[3,4-b]pyridine-5-carboxamide]	12.6 to 25.1 nM
CCn1ncc2c(N[C@H]3CC[C@H](C(N)=O)CC3)c(C(=O)N[C@H](C)c3ccc(Br)cc3)cnc21 [Example 359, 4-{[trans-4-(aminocarbonyl)cyclohexyl]amino}-N-[(1R)-1-(4-bromophenyl)ethyl]-1-ethyl-1H-pyrazolo[3,4-b]pyridine-5-carboxamide]	39.8 to 158 nM
CCn1ncc2c(NC3CCOCC3)c(C(=O)N[C@@H](C(N)=O)c3ccccc3)cnc21 [Example 25, N-[(1R)-2-amino-2-oxo-1-phenylethyl]-1-ethyl-4-(tetrahydro-2H-pyran-4-ylamino)-1H-pyrazolo[3,4-b]pyridine-5-carboxamide]	31.6 to 70.8 nM
CCn1ncc2c(NC3CCC(=O)CC3)c(C(=O)N[C@H](C)c3ccc(C)cc3)cnc21 [Example 191, 1-ethyl-N-[(1R)-1-(4-methylphenyl)ethyl]-4-[(4-oxocyclohexyl)amino]-1H-pyrazolo[3,4-b]pyridine-5-carboxamide]	0.1 to 2 nM
CCn1ncc2c(N[C@H]3CC[C@@H](C(N)=O)CC3)c(C(=O)N[C@H](C)c3ccccc3)cnc21 [Example 354, 4-{[cis-4-(aminocarbonyl)cyclohexyl]amino}-1-ethyl-N-[(1R)-1-phenylethyl]-1H-pyrazolo[3,4-b]pyridine-5-carboxamide]	0.501 to 3.16 nM
CCn1ncc2c(NC3CCOCC3)c(C(=O)N[C@H](C)c3ccccc3)cnc21 [Example 8, 1-ethyl-N-[(1R)-1-phenylethyl]-4-(tetrahydro-2H-pyran-4-ylamino)-1H-pyrazolo[3,4-b]pyridine-5-carboxamide]	0.794 to 5.01 nM
CCn1ncc2c(NC3CCOCC3)c(C(=O)N[C@H](C)c3ccc(C)cc3)cnc21 [Example 73, 1-ethyl-N-[(1R)-1-(4-methylphenyl)ethyl]-4-(tetrahydro-2H-pyran-4-ylamino)-1H-pyrazolo[3,4-b]pyridine-5-carboxamide]	0.1 to 2 nM
CCn1ncc2c(NC3CCOCC3)c(C(=O)N[C@H](C)c3ccc(OC)cc3)cnc21 [Example 63, 1-ethyl-N-{(1R)-1-[4-(methyloxy)phenyl]ethyl}-4-(tetrahydro-2H-pyran-4-ylamino)-1H-pyrazolo[3,4-b]pyridine-5-carboxamide]	0.794 to 5.01 nM
